# From patent US20050003000A1, “Method for the formation of ibuprofen crystals” (priority 2001, published 2005)
# Assay: Powder dissolution / in vitro release rate of the pure active compound, phosphate buffer pH 7.4 USP XXIV, paddle process 100 rpm
# Assay type: physicochemical
# Settings: for Rate of dissolution (in words) / Active compound dissolved after 5 min / Active compound dissolved after 8 min: 3 l scale crystallizate; for Amount released [%] after 2 min: Table 3, ibuprofen crystallized by displacement precipitation
# Method: The measurements of the release rate was carried out according to USP XXIV.
# • 1. 80 g of ibuprofen are dissolved in 100 ml of isopropanol at 40° C. Precipitation is then carried out by addition of ice water (450 ml/stirrer speed 50 rpm) during the course of 70 min. During this process cooling to 10° C. takes place. The crystals are recovered by filtration and dried in vacuo. […] 3.2 g of sucrose monolaurate are added as an additive. Precipitation is then carried out by addition of ice water (450 ml/stirrer speed 200 rpm) during the course of 70 min. During this process cooling to 10° C. takes place. The crystals are recovered by filtration, washed with ice water (3×50 ml) and dried in vacuo. […] 8 g of Tween®80 are added as an additive. Precipitation is then carried out by addition of ice water (450 ml/stirrer speed 200 rpm) during the course of 70 min. During this process cooling to 10° C. takes place. The crystals are recovered by filtration, washed with ice water (3×50 ml) and dried in vacuo. […] 80 g of ibuprofen are dissolved in 100 ml of isopropanol at 40° C. 3 g of sucrose monolaurate are added as an additive. Precipitation is then carried out by addition of ice water (450 ml/stirrer speed 200 rpm) during the course of 70 min; during this process, cooling to 10° C. takes place; the crystals are recovered by filtration, washed with ice water (3×150 ml) and dried in vacuo.
# [1] = powder dissolution, pure active compound, phosphate buffer pH 7.4 USP XXIV
# [2] = Table 1, ibuprofen powder, time 0 min
# [3] = Table 1, ibuprofen powder, time 2 min
# [4] = Table 1, ibuprofen powder, time 5 min
# [5] = Table 1, ibuprofen powder, time 8 min
# [6] = Table 1, ibuprofen powder, time 10 min
# [7] = Table 1, ibuprofen powder, time 15 min
# [8] = Table 1, ibuprofen powder, time 20 min
# [9] = Table 2, ibuprofen powder, time 0
# [10] = Table 2, ibuprofen powder, time 2
# [11] = Table 2, ibuprofen powder, time 5
# [12] = Table 2, ibuprofen powder, time 8
# [13] = Table 2, ibuprofen powder, time 10
# [14] = Table 2, ibuprofen powder, time 15
# [15] = Table 2, ibuprofen powder, time 20
smiles,measurement,setting,value
"CC(C)Cc1ccc(C(C)C(=O)O)cc1 (stereo not drawn) [Example 4, ibuprofen]",Time after which a 100% release / dissolution is seen,[1],5 min
same,Release / dissolution within (after) 2 minutes,[1],85%
"CC(C)Cc1ccc(C(C)C(=O)O)cc1 (stereo not drawn) [Example 13, ibuprofen]",Rate of dissolution (in words),,good rate of dissolution
same,Active compound dissolved after 5 min,,92%
same,Active compound dissolved after 8 min,,100%
"CC(C)Cc1ccc(C(C)C(=O)O)cc1 (stereo not drawn) [Example 12, ibuprofen]",Rate of dissolution (in words),,good rate of dissolution
same,Active compound dissolved after 5 min,,87%
same,Active compound dissolved after 8 min,,95%
"CC(C)Cc1ccc(C(C)C(=O)O)cc1 (stereo not drawn) [Example 1, ibuprofen]",Time after which a 100% release / dissolution is seen,[1],15 min
"CC(C)Cc1ccc(C(C)C(=O)O)cc1 (stereo not drawn) [Commercial article, ibuprofen]",Amount released [%],[2],0.0%
same,Amount released [%],[3],15.1%
same,Amount released [%],[4],36.9%
same,Amount released [%],[5],59.5%
same,Amount released [%],[6],73.9%
same,Amount released [%],[7],98.0%
same,Amount released [%],[8],99.0%
same,Amount released [%],[9],0.0%
same,Amount released [%],[10],15.1%
same,Amount released [%],[11],36.9%
same,Amount released [%],[12],59.5%
same,Amount released [%],[13],73.9%
same,Amount released [%],[14],98.0%
same,Amount released [%],[15],99.0%
same,Amount released [%] after 2 min,,15.1%
same,Time after which a 100% release / dissolution is seen,[1],> 15 min
same,Release / dissolution within (after) 2 minutes,[1],< 20%
"CC(C)Cc1ccc(C(C)C(=O)O)cc1 (stereo not drawn) [Example 7, ibuprofen]",Time after which a 100% release / dissolution is seen,[1],5 min
same,Release / dissolution within (after) 2 minutes,[1],85%
"COc1ccc2cc([C@H](C)C(=O)O)ccc2c1 [Example 2, naproxen]",Time after which a 100% release is seen,[1],15 s
"CC(C)Cc1ccc(C(C)C(=O)O)cc1 (stereo not drawn) [Suc. monolaurate + trehalose, ibuprofen]",Amount released [%] after 2 min,,100.1%
"CC(C)Cc1ccc(C(C)C(=O)O)cc1 (stereo not drawn) [Suc. monolaurate + dextran 200, ibuprofen]",Amount released [%] after 2 min,,100.4%
"CC(C)Cc1ccc(C(C)C(=O)O)cc1 (stereo not drawn) [Example 15, ibuprofen]",Rate of dissolution (in words),,good rate of dissolution
"CC(C)Cc1ccc(C(C)C(=O)O)cc1 (stereo not drawn) [Additive: sucrose monolaurate, ibuprofen]",Amount released [%],[2],0.0%
same,Amount released [%],[3],85.2%
same,Amount released [%],[4],98.8%
same,Amount released [%],[5],100.0%
same,Amount released [%],[6],100.0%
same,Amount released [%],[7],100.0%
same,Amount released [%],[8],100.0%
same,Amount released [%],[9],0.0%
same,Amount released [%],[10],85.9%
same,Amount released [%],[11],98.4%
same,Amount released [%],[12],99.5%
same,Amount released [%],[13],99.9%
same,Amount released [%],[14],100.7%
same,Amount released [%],[15],100.6%
same,Amount released [%] after 2 min,,85.2%
"CC(C)Cc1ccc(C(C)C(=O)O)cc1 (stereo not drawn) [Example 18, ibuprofen]",Time after which a 100% release / dissolution is seen,[1],approximately 5 min
"CC(C)Cc1ccc(C(C)C(=O)O)cc1 (stereo not drawn) [Example 11, ibuprofen]",Rate of dissolution (in words),,comparatively good rate of dissolution
same,Active compound dissolved after 5 min,,81%
same,Active compound dissolved after 8 min,,90%
"CC(C)Cc1ccc(C(C)C(=O)O)cc1 (stereo not drawn) [Example 5, ibuprofen]",Time after which a 100% release / dissolution is seen,[1],5 min
same,Release / dissolution within (after) 2 minutes,[1],85%
"CC(C)Cc1ccc(C(C)C(=O)O)cc1 (stereo not drawn) [Solvent change without addition, ibuprofen]",Amount released [%],[2],0.0%
same,Amount released [%],[3],20.9%
same,Amount released [%],[4],48.9%
same,Amount released [%],[5],67.2%
same,Amount released [%],[6],76.5%
same,Amount released [%],[7],94.3%
same,Amount released [%],[8],100.0%
"CC(C)Cc1ccc(C(C)C(=O)O)cc1 (stereo not drawn) [Example 14, ibuprofen]",Rate of dissolution (in words),,good rate of dissolution
"CC(C)Cc1ccc(C(C)C(=O)O)cc1 (stereo not drawn) [Suc. monolaurate + HPC, ibuprofen]",Amount released [%] after 2 min,,100.8%
"CC(C)Cc1ccc(C(C)C(=O)O)cc1 (stereo not drawn) [Example 6, ibuprofen]",Time after which a 100% release / dissolution is seen,[1],5 min
same,Release / dissolution within (after) 2 minutes,[1],85%
"CC(C)Cc1ccc(C(C)C(=O)O)cc1 (stereo not drawn) [Suc. monolaurate + Klucel ® LF, ibuprofen]",Amount released [%] after 2 min,,98.9%
"CC(C)Cc1ccc(C(C)C(=O)O)cc1 (stereo not drawn) [Suc. monolaurate + Kollicoat ® IR, ibuprofen]",Amount released [%] after 2 min,,97.8%
